# Key:
# [1] = tested on: GLI1 mRNA expression; experiment: RT-qPCR GLI1 mRNA expression in Sufu-KO MEFs; type: cell-based, mouse
# Experimental: (§1) ASZ001 and Sufu-KO cells were seeded in 96-well plates (10,000/well, 100 μL) and incubated overnight under growth conditions. On the second day, ‘growth’ media was removed and replaced by ‘assay’ media (100 μL). On the third day, cells were treated with a serial dilution of drugs or DMSO for 48 h. mRNA expression was determined through Taqman Fast Cells-to-CT Kit (#4399003) per the manufacturer's instructions. In brief, cells were washed with chilled PBS, then mixed with lysis solution containing DNase I and incubated at RT for 5 min. Stop solution was then added to quench the lysis reagents. cDNA was then synthesized through a BioRad MyCycler following addition of reverse transcriptase. Finally, the cDNA was amplified through an ABI 7500 system following addition of Taqman Fast Universal PCR Master Mix and Taqman Gene Expression Primer. Relative gene expression levels were computed by the ΔΔCt method. Values represent mRNA expression relative to DMSO control (set at 1.0). Data were analyzed using GraphPad Prism, and IC50 values are the mean±SEM for at least two separate experiments performed in triplicate. Primers used are as follows: mouse ActB (Mm00607939_s1); mouse GLI1 (Mm00494645_ml); mouse Gli2 (Mm01293117_ml); mouse Ptch1 (Mm00436026_ml); mouse Hhip (Mm00469580_ml).
# [2] = tested on: GLI1 mRNA expression; experiment: RT-qPCR GLI1 mRNA expression in OHCs-stimulated C3H10T1/2 MEFs; type: cell-based, mouse; details: for % Gli1 Expression: C3H10T1/2 MEFs, 10 μM, relative to Hh-agonist OHCs (set as 100%)
# Experimental: as §1
# C3H10T1/2 MEFs were seeded in 24-well plates (50,000/well, 500 μL). Following 24 h incubation, the ‘growth’ media was removed and replaced with ‘assay’ media (500 μL). On the third day, cells were treated with either DMSO, OHCs, or OHCs+drugs. Following a 24 h incubation, gene expression analysis was carried out following identical protocols as described above.
# [3] = tested on: GLI1 mRNA expression; experiment: RT-qPCR GLI1 mRNA expression in ASZ001 BCC cells; type: cell-based, mouse; details: for reduction of GLI1 expression in ASZ001 (in words): concentrations up to 10 μM
# Experimental: as §1
# [4] = tested on: ASZ001 cells; experiment: MTS anti-proliferative assay in ASZ001 cells; type: cell-based, murine; details: Mus musculus, ASZ001; Table 5, 48 h, Ave ± SEM
# Experimental: Cell viability was assessed by MTS proliferation assay kit (Promega) per manufacturer's protocol. Briefly, 2×10^4 cells were plated in a 96-well plate in 100 μL growth medium to make the cell population at ˜80% confluence. After 24 h, 1 μL drug solution was added to each well. DMSO was used as vehicle compound. After 48 h incubation (37° C., 5% CO2), 20 μL of freshly prepared 3-(4,5-dimethylthiazol-2-yl)-5-(3-carboxymethoxyphenyl)-2-(4-sulfophenyl)-2H-tetrazolium (MTS)/phenazine methosulfate (PMS) solution was added to each well, and the plate was returned to the incubator for 1 h. Absorbance at 490 nm was recorded, and the result was analyzed by GraphPad Prism 5. GI50 values represent mean±SEM for at least two separate experiments performed in triplicate.
# [5] = Table 2, mean ± SEM, read-out: GLI1 mRNA expression, IC50 Sufu-KO
# [6] = Table 2, mean ± SEM, read-out: GLI1 mRNA expression, IC50 C3H10T1/2
# [7] = Table 2, mean ± SEM, read-out: GLI1 mRNA expression, IC50 ASZ001
# [8] = Table 4, racemates and enantiomers, mean ± SEM, read-out: RT-qPCR, IC50 Sufu-KO
# [9] = Table 4, racemates and enantiomers, mean ± SEM, read-out: RT-qPCR, IC50 C3H10T1/2
# [10] = Table 4, racemates and enantiomers, mean ± SEM, read-out: RT-qPCR, IC50 ASZ001
# [11] = Mus musculus, Table 5, GLI1 mRNA, Ave ± SEM, read-out: RT-qPCR, IC50 Sufu-KO
# [12] = Mus musculus, ASZ001, Table 5, GLI1 mRNA, Ave ± SEM, read-out: RT-qPCR, IC50 ASZ001
"IC50 [1, 5]","IC50 [2, 6]","IC50 [3, 7]","IC50 [1, 11]","IC50 [3, 12]",Compound,% Gli1 Expression ([2]; mean ± SEM),GI50 [4],other results
990 ± 320 nM,760 ± 230 nM,5800 ± 1100 nM,,,COc1cccc(C(Nc2cc(C)ccn2)c2ccc3cccnc3c2O)c1C (racemic) [Compound 2],7.0 ± 1.4%,,
310 ± 210 nM,1200 ± 400 nM,2200 ± 900 nM,,,Cc1ccnc(NC(c2cc(C)ccc2C)c2ccc3cccnc3c2O)c1 (racemic) [Compound 3],10.0 ± 2.4%,,"IC50 [1, 8]: 310 ± 210 nM; IC50 [2, 9]: 1200 ± 400 nM; IC50 [3, 10]: 2200 ± 900 nM"
630 ± 200 nM,1800 ± 500 nM,7100 ± 1200 nM,,,COc1ccc(C(Nc2cc(C)ccn2)c2ccc3cccnc3c2O)cc1O (racemic) [Compound 5],6.1 ± 0.6%,,
780 ± 160 nM,3100 ± 1200 nM,> 10000 nM,,,CCOc1cc(C(Nc2cc(C)ccn2)c2ccc3cccnc3c2O)ccc1OC (racemic) [Compound 6],7.6 ± 0.9%,,reduction of GLI1 expression in ASZ001 (in words) [3]: did not reduce GLI1 expression
480 ± 220 nM,570 ± 140 nM,2800 ± 1500 nM,,,Oc1c(C(Nc2ccccn2)c2ccc(Cl)c(Cl)c2)ccc2cccnc12 (racemic) [Compound 7],4.2 ± 0.9%,,"IC50 [1, 8]: 480 ± 220 nM; IC50 [2, 9]: 570 ± 140 nM; IC50 [3, 10]: 2800 ± 1500 nM"
1300 ± 200 nM,980 ± 470 nM,4500 ± 2600 nM,,,CSc1ccc(C(Nc2cc(C)ccn2)c2ccc3cccnc3c2O)cc1 (racemic) [Compound 8],4.1 ± 1.1%,,
1900 ± 600 nM,620 ± 190 nM,> 10000 nM,,,Cc1ccccc1C(Nc1ccccn1)c1ccc2cccnc2c1O (racemic) [Compound 9],10.6 ± 1.9%,,reduction of GLI1 expression in ASZ001 (in words) [3]: did not reduce GLI1 expression
1500 ± 400 nM,210 ± 100 nM,8400 ± 2000 nM,,,Cc1ccnc(NC(c2cccc(Cl)c2Cl)c2ccc3cccnc3c2O)c1 (racemic) [Compound 10],18.2 ± 1.5%,,"IC50 [1, 8]: 1500 ± 400 nM; IC50 [2, 9]: 210 ± 100 nM; IC50 [3, 10]: 8400 ± 2000 nM"
3700 ± 1000 nM,390 ± 270 nM,> 10000 nM,,,Cc1ccc2ccc(C(Nc3ccccn3)c3ccc(Cl)c(Cl)c3)c(O)c2n1 (racemic) [Compound 11],16.6 ± 0.7%,,reduction of GLI1 expression in ASZ001 (in words) [3]: did not reduce GLI1 expression
1000 ± 200 nM,730 ± 70 nM,3600 ± 1500 nM,,,Oc1c(C(Nc2ccccn2)c2c(F)cccc2Cl)ccc2cccnc12 (racemic) [Compound 12],6.5 ± 0.8%,,"IC50 [1, 8]: 1000 ± 200 nM; IC50 [2, 9]: 730 ± 70 nM; IC50 [3, 10]: 3600 ± 1500 nM"
1700 ± 100 nM,1000 ± 300 nM,3600 ± 1100 nM,,,COc1ccc(C(Nc2ccccn2)c2ccc3cccnc3c2O)cc1[N+](=O)[O-] (racemic) [Compound 13],5.9 ± 0.3%,,
,,,,,CCOc1cccc(C(Nc2cc(C)ccn2)c2ccc3cccnc3c2O)c1OC (racemic) [s2],63.7 ± 7.2%,,
,,,,,CCOc1cccc(C(Nc2cc(C)ccn2)c2ccc3cccnc3c2O)c1C (racemic) [s3],59.1 ± 11.9%,,
,,,,,CCOc1cccc(C(Nc2ccccn2)c2ccc3ccc(C)nc3c2O)c1 (racemic) [s6],56.1 ± 2.1%,,
,,,,,CCOc1ccc(C(Nc2ccccn2)c2ccc3ccc(C)nc3c2O)cc1OC (racemic) [s7],>100%,,
,,,,,CCc1ccc(C(Nc2cc(C)ccn2)c2ccc3cccnc3c2O)cc1 (racemic) [s10],79.4 ± 8.1%,,
,,,,,COc1ccc(C(Nc2ccccn2)c2ccc3ccc(C)nc3c2O)cc1C (racemic) [s11],62.1 ± 6.4%,,

"IC50 [1, 5]","IC50 [2, 6]","IC50 [3, 7]","IC50 [1, 11]","IC50 [3, 12]",Compound,% Gli1 Expression ([2]; mean ± SEM),GI50 [4],other results
,,,,,Cc1ccc2ccc(C(Nc3ccccn3)c3ccccc3Cl)c(O)c2n1 (racemic) [s12],23.6 ± 2.8%,,
,,,,,Cc1ccc2ccc(C(Nc3ccccn3)c3ccccc3F)c(O)c2n1 (racemic) [s14],78.9 ± 17.6%,,
,,,,,CCOc1ccc(C(Nc2ccccn2)c2ccc3ccc(C)nc3c2O)cc1 (racemic) [s16],86.8 ± 5.7%,,
,,,,,COc1ccc(C(Nc2ccccn2)c2ccc3ccc(C)nc3c2O)cc1 (racemic) [s18],>100%,,
,,,,,COc1ccc(I)cc1C(Nc1cc(C)ccn1)c1ccc2cccnc2c1O (racemic) [s19],>100%,,
,,,980 ± 210 nM,1600 ± 700 nM,"CCN(CC)c1ccc(C(Nc2ccccn2)c2cc(C)c3ccc(C)nc3c2O)cc1 (centres unmarked) [Compound 16, 7-((4-Diethylaminophenyl)(pyridin-2-ylamino)methyl)-2,5-dimethylquinolin-8-ol]",,15700 ± 2800 nM,
,,,> 25000 nM,9900 ± 1400 nM,"CCN(CC)c1ccc(C(Nc2ccccn2)c2ccc3ccccc3c2O)cc1 (centres unmarked) [Compound 17, 2-((4-Diethylaminophenyl)(pyridin-2-ylamino)methyl)naphthalen-1-ol]",,> 100000 nM,
,,,> 25000 nM,14600 ± 1400 nM,"CCN(CC)c1ccc(C(Nc2ccccn2)c2c(O)ccc3cccnc23)cc1 (centres unmarked) [Compound 19, 8-((4-Diethylaminophenyl)(pyridin-2-ylamino)methyl)quinolin-7-ol]",,> 100000 nM,
,,,> 25000 nM,840 ± 60 nM,"CCN(CC)c1ccc(C(Nc2ccccn2)c2ccc3ccc(C)nc3c2OC(C)C)cc1 (centres unmarked) [Compound 21, N-((4-Diethylaminophenyl)(8-isopropoxy-2-methylquinolin-7-yl)methyl)pyridin-2-amine]",,> 100000 nM,
,,,> 25000 nM,1900 ± 500 nM,"C#CCCOc1c(C(Nc2ccccn2)c2ccc(N(CC)CC)cc2)ccc2ccc(C)nc12 (centres unmarked) [Compound 23, N-((4-Diethylaminophenyl)(8-(but-3-yn-1-yloxy)-2-methylquinolin-7-yl)methyl)pyridin-2-amine]",,> 100000 nM,
,,,> 25000 nM,1700 ± 300 nM,"CCN(CC)c1ccc(C(Nc2ccccn2)c2ccc3ccc(C)nc3c2OCc2ccccc2)cc1 (centres unmarked) [Compound 24, N-((4-Diethylaminophenyl)(8-benzyloxy-2-methylquinolin-7-yl)methyl)pyridin-2-amine]",,> 100000 nM,
,,,> 25000 nM,1300 ± 400 nM,"CCN(CC)c1ccc(C(Nc2ccccn2)c2ccc3ccc(C)nc3c2OCc2cccc(OC)c2)cc1 (centres unmarked) [Compound 25, N-((4-Diethylaminophenyl)(8-(3-methoxybenzyloxy)-2-methylquinolin-7-yl)methyl)pyridin-2-amine]",,> 100000 nM,
,,,> 25000 nM,1200 ± 500 nM,"CCN(CC)c1ccc(C(Nc2ccccn2)c2ccc3ccc(C)nc3c2OCc2ccc(OC)cc2)cc1 (centres unmarked) [Compound 26, N-((4-Diethylaminophenyl)(8-(4-methoxybenzyloxy)-2-methylquinolin-7-yl)methyl)pyridin-2-amine]",,> 100000 nM,
,,,> 25000 nM,6900 ± 1100 nM,"CCN(CC)c1ccc(C2c3ccc4ccc(C)nc4c3OC(=O)N2c2ccccn2)cc1 (centres unmarked) [Compound 27, 4-(4-Diethylaminophenyl)-9-methyl-3-(pyridin-2-yl)-3,4-dihydro-2H-[1,3]oxazino[5,6-h]quinolin-2-one]",,> 100000 nM,
,,,2100 ± 600 nM,7200 ± 1100 nM,"CCN(CC)c1ccc(C(C)(Nc2ccccn2)c2ccc3ccc(C)nc3c2O)cc1 (centres unmarked) [Compound 28, 7-(1-(4-(Diethylamino)phenyl)-1-(pyridin-2-ylamino)ethyl)-2-methylquinolin-8-ol]",,25100 ± 4200 nM,
,,,,,Cc1ccc(NC(c2cccc(C)n2)c2ccc3cccnc3c2O)nc1 (centres unmarked) [s25],>100%,,

# Source: patent US20240299400A1, “Transcription Factor GLI1 Inhibitors and Uses Thereof” (University of Connecticut, priority 2023, published 2024)
